Measured values from ChEMBL document CHEMBL4402585 (J Med Chem, 2020).
pIC50, pKd: −log10 of the molar value. Calls of active or inactive are those of the source. The rule behind the calls is not given here.

Tests used:
[1] = Half life in mouse liver microsomes at 0.1 uM preincubated for 10 mins followed by NADPH addition and measured up to 60 mins by LC-MS/MS analysis; assay type: ADME, Microsome
[2] = Volume of distribution at steady state in Sprague-Dawley rat at 1 mg/kg, iv by LC-MS/MS analysis; assay type: ADME, organism-based; conditions: in vivo, read-out: Vdss
[3] = Half life in mouse at 3 mg/kg, po by LC-MS/MS analysis; assay type: ADME, organism-based; conditions: in vivo
[4] = Cmax in mouse at 3 mg/kg, po by LC-MS/MS analysis; assay type: ADME, organism-based; parameters: dose 3 mg/kg, route oral; conditions: in vivo
[5] = AUC (0 to t) in mouse at 3 mg/kg, po by LC-MS/MS analysis; assay type: ADME, organism-based; conditions: in vivo
[6] = AUC (0 to t) in mouse at 3 mg/kg, iv by LC-MS/MS analysis; assay type: ADME, organism-based; conditions: in vivo
[7] = target: Bromodomain testis-specific protein (Homo sapiens, UniProt Q58F21); assay: Binding affinity to human partial length BRDT bromodomain 2 isoform b (K250 to E382 residues) expressed in bacterial expression system by bromoscan assay
Kasumi 1 = assay: Antiproliferative activity against human Kasumi-1 cells assessed as reduction in cell viability measured after 72 hrs by Celltitre-glo luminescence assay; assay type: functional, cell-based; conditions: Kasumi 1, 72 h
RS4-11 = assay: Antiproliferative activity against human RS4:11 cells assessed as reduction in cell viability measured after 72 hrs by Celltitre-glo luminescence assay; assay type: functional, cell-based; conditions: RS4-11, 72 h
MV4-11 [8] = assay: Cell cycle arrest in human MV4-11 cells assessed as increase in accumulation at G1-phase at 31.25 nM measured after 24 hrs by propidium iodide staining based flow cytometry; assay type: functional
[9] = Clearance in monkey liver microsomes at 0.1 uM preincubated for 10 mins followed by NADPH addition and measured up to 60 mins by LC-MS/MS analysis; assay type: ADME, Macaca mulatta, Microsome; conditions: rhesus monkey, 1 h
Cytochrome P450 1A2 = target: T1, Cytochrome P450 1A2 (Homo sapiens, UniProt P05177); assay: Inhibition of CYP1A2 in human liver microsomes using phenacetin as substrate preincubated for 10 mins followed by NADPH addition and measured after 15 mins by LC-MS/MS analysis; assay type: ADME
T1 sequence (P05177 whole entry): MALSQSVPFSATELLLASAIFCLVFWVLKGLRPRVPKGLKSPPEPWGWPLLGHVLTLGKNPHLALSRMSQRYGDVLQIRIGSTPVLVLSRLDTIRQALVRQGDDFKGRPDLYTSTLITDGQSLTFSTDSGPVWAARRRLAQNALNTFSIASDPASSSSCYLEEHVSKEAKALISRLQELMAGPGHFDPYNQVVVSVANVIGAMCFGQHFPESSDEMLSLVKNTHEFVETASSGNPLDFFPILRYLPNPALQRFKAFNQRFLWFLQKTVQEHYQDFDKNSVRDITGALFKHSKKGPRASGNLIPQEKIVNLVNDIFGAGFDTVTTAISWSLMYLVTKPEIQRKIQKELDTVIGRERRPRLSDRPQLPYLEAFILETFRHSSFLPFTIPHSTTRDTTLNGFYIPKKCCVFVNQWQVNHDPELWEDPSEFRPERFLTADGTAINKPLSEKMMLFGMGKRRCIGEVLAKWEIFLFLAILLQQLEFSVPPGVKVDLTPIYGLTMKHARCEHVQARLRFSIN

Cytochrome P450 2C19 = Cytochrome P450 2C19 (Homo sapiens, UniProt P33261); assay: Inhibition of CYP2C19 in human liver microsomes using S-mephenytoin as substrate preincubated for 10 mins followed by NADPH addition and measured after 15 mins by LC-MS/MS analysis; assay type: ADME
Sequence of Cytochrome P450 2C19 (P33261 whole entry): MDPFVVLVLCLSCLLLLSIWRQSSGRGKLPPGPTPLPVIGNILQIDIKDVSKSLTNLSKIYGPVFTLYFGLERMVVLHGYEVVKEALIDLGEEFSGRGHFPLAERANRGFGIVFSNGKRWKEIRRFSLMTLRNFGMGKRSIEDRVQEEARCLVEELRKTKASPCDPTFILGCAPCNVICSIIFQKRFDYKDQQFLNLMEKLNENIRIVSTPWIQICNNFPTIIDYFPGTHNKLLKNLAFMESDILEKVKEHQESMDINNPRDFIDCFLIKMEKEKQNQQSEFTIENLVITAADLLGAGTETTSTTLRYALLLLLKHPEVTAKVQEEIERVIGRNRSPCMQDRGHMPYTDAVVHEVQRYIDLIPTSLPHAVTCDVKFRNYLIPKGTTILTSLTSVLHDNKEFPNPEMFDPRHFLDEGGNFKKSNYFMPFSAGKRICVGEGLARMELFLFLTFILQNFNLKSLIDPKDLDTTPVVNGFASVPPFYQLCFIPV

MV4-11 [10] = assay: Antitumor activity against human MV4-11 cells xenografted in mouse assessed as tumor growth inhibition at 12.5 mg/kg, po administered for 28 days and measured every 2 to 3 days during compound dosing relative to control; assay type: functional; conditions: MV4-11, po, read-out: TGI
[11] = target: Bromodomain-containing protein 4 (Homo sapiens, UniProt O60885)
Description: Binding affinity to N-terminal His6-tagged BRD4 bromodomain 1 (49 to 170 residues) (unknown origin) expressed in Escherichia coli BL21 (DE3) assessed as change in melting temperature at 1:100 molar ratio by SYPRO orange dye based fluorescence thermal shift assay

half-life at 0.1 µM [1]: 1.38 h
Vd [2]: 1.46 L/kg
half-life [3]: 1.3 h
Cmax [4]: 399 ng/mL
AUC(0-t) [5]: 1710 ng·h/mL
AUC(0-t) [6]: 3270 ng·h/mL
pKd [7]: 8.68
pIC50 (RS4-11): 7.66
CLH [9]: 42.7 mL/min/g
pIC50 (Cytochrome P450 1A2): < 4.70
pIC50 (Cytochrome P450 2C19): < 4.70
ΔTm [11]: > 1 °C
SMILES: CCS(=O)(=O)Cc1cnc(Oc2ccc(F)cc2F)c(-c2cc(C)c3c(=O)[nH]ccn23)c1
pIC50 (Kasumi 1): 8.13
Activity (MV4-11 [8]): Active
inhibition in vivo at 12.5 mg/kg (MV4-11 [10]): 99.7%
